The results in this text go back to patent US8580965B2, “Substituted sulfonamide compounds” (Gruenenthal GmbH, priority 2006, dated 2013).

The target in assay [1] is T1, B1R receptor of the rat (bradykinin 1 receptor) (Rattus norvegicus, UniProt P97583).
T1 construct: host or cells: CHO K1 cells (rB1R cells)
T1 sequence (P97583 1-337): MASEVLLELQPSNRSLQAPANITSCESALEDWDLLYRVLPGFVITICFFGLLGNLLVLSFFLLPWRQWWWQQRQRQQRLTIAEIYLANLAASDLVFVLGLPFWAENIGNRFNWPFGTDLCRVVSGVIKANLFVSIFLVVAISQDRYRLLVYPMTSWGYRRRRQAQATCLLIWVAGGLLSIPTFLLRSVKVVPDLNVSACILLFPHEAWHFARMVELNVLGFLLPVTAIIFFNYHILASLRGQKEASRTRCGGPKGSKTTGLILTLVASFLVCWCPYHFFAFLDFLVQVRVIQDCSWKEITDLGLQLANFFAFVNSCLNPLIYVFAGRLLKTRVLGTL
As to the kind of experiment: FLIPR Ca2+ assay (Fluo-4) on CHO K1 cells stably transfected with the B1R gene of the rat; % activation and % inhibition at 10 μM. In kind it is cell-based. Particulars: CHO K1 rB1R cells, Ca2+ inflow after 100 nM Des-Arg9-bradykinin; for inhibition at 10 µM: CHO-K1, test substance 10 μM, read-out: B1R antagonism, rat [10 μM] % inhibition. In outline: (§1)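 CHO K1 cells stably expressing human or rat B1R, Fluo-4 loaded, read by FLIPR (peak fluorescence). Compound at 10 µM first gives % activation versus agonist; after 10 min, agonist (human: 0.5 nM Lys-Des-Arg9-bradykinin; rat: 100 nM Des-Arg9-bradykinin) gives % inhibition relative to maximal inhibition.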

In assay [2] the target is T2, human B1R receptor (bradykinin 1 receptor) (Homo sapiens, UniProt P46663).
T2 construct: host or cells: CHO K1 cells (hB1R cells)
T2 sequence (P46663 1-353): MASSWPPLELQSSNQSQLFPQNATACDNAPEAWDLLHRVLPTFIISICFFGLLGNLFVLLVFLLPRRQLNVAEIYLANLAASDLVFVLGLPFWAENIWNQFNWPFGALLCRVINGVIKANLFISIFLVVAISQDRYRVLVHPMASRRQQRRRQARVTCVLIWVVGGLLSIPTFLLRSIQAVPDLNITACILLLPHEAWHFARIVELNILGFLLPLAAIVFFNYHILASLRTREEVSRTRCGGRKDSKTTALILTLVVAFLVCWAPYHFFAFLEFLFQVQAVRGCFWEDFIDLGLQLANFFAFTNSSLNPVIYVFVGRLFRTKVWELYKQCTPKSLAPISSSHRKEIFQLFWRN
The assay is described as follows: FLIPR Ca2+ assay (Fluo-4) on CHO K1 cells stably transfected with the human B1R gene; % activation and % inhibition at 10 μM. Type of assay: cell-based. Particulars: CHO K1 hB1R cells, Ca2+ inflow after 0.5 nM Lys-Des-Arg9-bradykinin; for inhibition at 10 µM: CHO-K1, test substance 10 μM, read-out: B1R antagonism, human [10 μM] % inhibition. In outline:
as §1

The mark [3] stands for this setting: test substance 10 μM, hydrochloride.

The structures appear in SMILES notation. Where a name gives a salt, the structure may show the parent alone.

Take `O=C(COCC1CCCN1S(=O)(=O)c1cc(Cl)sc1Cl)N1CCC(O)(Cc2ccccc2)CC1` (stereo not drawn) [Example 226, 1-(4-benzyl-4-hydroxypiperidin-1-yl)-2-((1-(2,5-dichlorothiophen-3-ylsulfonyl)pyrrolidin-2-yl)methoxy)ethanone]: the inhibition at 10 µM turned out to be 72.4% in assay [1] and 13% in assay [2].

As for `Cc1cc(C)c(S(=O)(=O)N2CCCCC2COCC(=O)N2CCC(O)(c3cccnc3)CC2)c(C)c1` (stereo not drawn) [Example 68, 1-(4′-hydroxy-3′,4′,5′,6′-tetrahydro-2′H-[3,4′]bipyridinyl-1′-yl)-2-[1-(2,4,6-trimethyl-phenylsulfonyl)-piperidin-2-ylmethoxy]-ethanone], the inhibition at 10 µM stood at 79% in assay [1] and 74.9% in assay [2].

`COc1cc(C)c(S(=O)(=O)N2CCC(OCC(=O)N3CCC(O)(c4ccccn4)CC3)C2)c(C)c1` (stereo not drawn) [Example 21, 1-(4′-hydroxy-3′,4′,5′,6′-tetrahydro-2′H-[2,4′]bipyridinyl-1′-yl)-2-[1-(4-methoxy-2,6-dimethyl-phenylsulfonyl)-pyrrolidin-3-yloxy]-ethanone]: the inhibition at 10 µM in assay [1] stood at 71.1%; in assay [2], 20.5%.

In the case of `O=C(COC1CCN(S(=O)(=O)c2c(Cl)cc(Cl)cc2Cl)C1)N1CCC(O)(c2ccccn2)CC1` (stereo not drawn) [Example 98, 1-(4′-hydroxy-3′,4′,5′,6′-tetrahydro-2′H-[2,4′]bipyridinyl-1′-yl)-2-[1-(2,4,6-trichloro-phenylsulfonyl)-pyrrolidin-3-yloxy]-ethanone], the figures for the inhibition at 10 µM in assay [1] and in assay [2] were 31.9% and 29.1%, respectively.

On to `O=C(COCC1CCCN1S(=O)(=O)c1c(Cl)cccc1Cl)N1CCC(O)(c2cccc(C(F)(F)F)c2)CC1` (stereo not drawn) [Example 222, 2-((1-(2,6-dichlorophenylsulfonyl)pyrrolidin-2-yl)methoxy)-1-(4-hydroxy-4-(3-(trifluoromethyl)phenyl)piperidin-1-yl)ethanone], for which the inhibition at 10 µM in assay [1] was found to be 103%; in assay [2], 102%.

Consider `O=C(COC1CCN(S(=O)(=O)c2ccc(Cl)cc2Cl)C1)N1CCC(O)(c2ccccn2)CC1` (stereo not drawn) [Example 17, 2-[1-(2,4-dichloro-phenylsulfonyl)-pyrrolidin-3-yloxy]-1-(4′-hydroxy-3′,4′,5′,6′-tetrahydro-2′H-[2,4′]bipyridinyl-1′-yl)-ethanone], for which the inhibition at 10 µM in assay [1] stood at 1.79%; in assay [2], 28%.

For `O=C(COCC1CCCCN1S(=O)(=O)c1c(Cl)cccc1Cl)N1CCC(O)(c2ccc(Cl)c(C(F)(F)F)c2)CC1` (stereo not drawn) [Example 236, 1-(4-(4-chloro-3-(trifluoromethyl)phenyl)-4-hydroxypiperidin-1-yl)-2-((1-(2,6-dichlorophenylsulfonyl)piperidin-2-yl)methoxy)ethanone], the inhibition at 10 µM in assay [1] was determined as 99.9%; in assay [2] it was 102%.

For the molecule `Cc1cc(S(=O)(=O)N(C)CCOCC(=O)N2CCC(O)(c3cccc(C(F)(F)F)c3)CC2)c(C)cc1Cl` [Example 154, 4-chloro-N-(2-(2-(4-hydroxy-4-(3-(trifluoromethyl)phenyl)piperidin-1-yl)-2-oxoethoxy)ethyl)-N,2,5-trimethylphenylsulfonamide], the inhibition at 10 µM came to 96.4% in assay [1] and 98.8% in assay [2].

As for `O=C(COCC1CCCN1S(=O)(=O)c1c(Cl)cc(C(F)(F)F)cc1Cl)N1CCC(O)(c2ccccc2)CC1` (stereo not drawn) [Example 168, 2-((1-(2,6-dichloro-4-(trifluoromethyl)phenylsulfonyl)pyrrolidin-2-yl)methoxy)-1-(4-hydroxy-4-phenylpiperidin-1-yl)ethanone], the inhibition at 10 µM in assay [1] came out at 104%; in assay [2] it was 33.1%.

With `O=C(COCC1CCCCN1S(=O)(=O)c1c(Cl)cccc1Cl)N1CCC(O)(c2ccc(Br)cc2)CC1` (stereo not drawn) [Example 234, 1-(4-(4-bromophenyl)-4-hydroxypiperidin-1-yl)-2-((1-(2,6-dichlorophenylsulfonyl)piperidin-2-yl)methoxy)ethanone], the inhibition at 10 µM in assay [1] came out at 99.3%; in assay [2], 102%.

`O=C(COCC1CCCCN1S(=O)(=O)c1c(Cl)cc(C(F)(F)F)cc1Cl)N1CCC(O)(c2cccc(C(F)(F)F)c2)CC1` (stereo not drawn) [Example 164, 2-((1-(2,6-dichloro-4-(trifluoromethyl)phenylsulfonyl)piperidin-2-yl)methoxy)-1-(4-hydroxy-4-(3-(trifluoromethyl)phenyl)piperidin-1-yl)ethanone]: the inhibition at 10 µM in assay [1] is 103%; in assay [2], 36.4%.

Consider `CN(CCCC(=O)N1CCC(O)(c2cccnc2)CC1)S(=O)(=O)c1ccc2ccccc2c1` [Example 115, N-(4-(4-hydroxy-4-(pyridin-3-yl)piperidin-1-yl)-4-oxobutyl)-N-methylnaphthalene-2-sulfonamide], for which the inhibition at 10 µM was found to be 44.3% in assay [1] and 55.2% in assay [2].

In the case of `O=C(COCC1Cc2ccccc2CN1S(=O)(=O)c1ccc(Cl)cc1Cl)N1CCC(O)(c2ccc(Cl)cc2)CC1` (stereo not drawn) [Example 79, 1-(4-(4-chlorophenyl)-4-hydroxypiperidin-1-yl)-2-((2-(2,4-dichlorophenylsulfonyl)-1,2,3,4-tetrahydroisoquinolin-3-yl)methoxy)ethanone], the values for the inhibition at 10 µM in assay [1] and in assay [2] were 70.7% and 47.3%, respectively.

`Cc1cc(Cl)cc(Cl)c1S(=O)(=O)N(C)CCOCC(=O)N1CCC(O)(c2ccccc2)CC1` [Example 105, 2,4-dichloro-N-(2-(2-(4-hydroxy-4-phenylpiperidin-1-yl)-2-oxoethoxy)ethyl)-N,6-dimethylphenylsulfonamide]: the values for the inhibition at 10 µM in assay [1] and in assay [2] were 96.1% and 98.6%, respectively.

Regarding `O=C(COCC1CCCCN1S(=O)(=O)c1c(Cl)cc(C(F)(F)F)cc1Cl)N1CCC(O)(c2ccccc2)CC1` (stereo not drawn) [Example 162, 2-((1-(2,6-dichloro-4-(trifluoromethyl)phenylsulfonyl)piperidin-2-yl)methoxy)-1-(4-hydroxy-4-phenylpiperidin-1-yl)ethanone], the inhibition at 10 µM in assay [1] is 105%; in assay [2], 24.6%.

As for `O=C(COCC1CCCCN1S(=O)(=O)c1cccc2ccccc12)N1CCC(O)(Cc2ccccc2)CC1` (stereo not drawn) [Example 64, 1-(4-benzyl-4-hydroxy-piperidin-1-yl)-2-[1-(naphthalene-1-sulfonyl)-piperidin-2-ylmethoxy]-ethanone], the inhibition at 10 µM in assay [1] is 64.2%; in assay [2], 69.2%.

For `CN(c1ccccc1CCC(=O)N1CCC(O)(c2ccc(Cl)c(C(F)(F)F)c2)CC1)S(=O)(=O)c1ccc(Cl)c(Cl)c1` [Example 124, 3,4-dichloro-N-(2-(3-(4-(4-chloro-3-(trifluoromethyl)phenyl)-4-hydroxypiperidin-1-yl)-3-oxopropyl)phenyl)-N-methylphenylsulfonamide], the inhibition at 10 µM was found to be 61.6% in assay [1] and 41% in assay [2].

`COc1cc(C)c(S(=O)(=O)N(C)CCOCC(=O)N2CCC(O)(c3cccnc3)CC2)c(C)c1` [Example 3, N-(2-(2-(4-hydroxy-4-(pyridin-3-yl)piperidin-1-yl)-2-oxoethoxy)ethyl)-4-methoxy-N,2,6-trimethylphenylsulfonamide hydrochloride]: the “B1R antagonism, rat [10 μM] % inhibition” value in assay [1] (setting [3]) was found to be 103.06%. In addition, the “B1R antagonism, human [10 μM] % inhibition” value in assay [2] (setting [3]) is listed as 102.19%.

What is called inhibition is the drop in the measured response relative to a control, in per cent.
